Measurements from patent US11345681B1, “Inhibitors of fibroblast growth factor receptor kinases” (Kinnate Biopharma Inc., priority 2020, dated 2022).

Molecular target: Wild type FGFR2 (Homo sapiens (Human), UniProt P21802)
Assay: FGFR2 kinase assay (fluorescence-based microfluidic mobility shift assay)
Format: biochemical
Details: wild type FGFR2 0.06 nM, 100 μM ATP, 80 minutes at room temperature; class symbols

Wild type FGFR2, sequence (P21802 22-821): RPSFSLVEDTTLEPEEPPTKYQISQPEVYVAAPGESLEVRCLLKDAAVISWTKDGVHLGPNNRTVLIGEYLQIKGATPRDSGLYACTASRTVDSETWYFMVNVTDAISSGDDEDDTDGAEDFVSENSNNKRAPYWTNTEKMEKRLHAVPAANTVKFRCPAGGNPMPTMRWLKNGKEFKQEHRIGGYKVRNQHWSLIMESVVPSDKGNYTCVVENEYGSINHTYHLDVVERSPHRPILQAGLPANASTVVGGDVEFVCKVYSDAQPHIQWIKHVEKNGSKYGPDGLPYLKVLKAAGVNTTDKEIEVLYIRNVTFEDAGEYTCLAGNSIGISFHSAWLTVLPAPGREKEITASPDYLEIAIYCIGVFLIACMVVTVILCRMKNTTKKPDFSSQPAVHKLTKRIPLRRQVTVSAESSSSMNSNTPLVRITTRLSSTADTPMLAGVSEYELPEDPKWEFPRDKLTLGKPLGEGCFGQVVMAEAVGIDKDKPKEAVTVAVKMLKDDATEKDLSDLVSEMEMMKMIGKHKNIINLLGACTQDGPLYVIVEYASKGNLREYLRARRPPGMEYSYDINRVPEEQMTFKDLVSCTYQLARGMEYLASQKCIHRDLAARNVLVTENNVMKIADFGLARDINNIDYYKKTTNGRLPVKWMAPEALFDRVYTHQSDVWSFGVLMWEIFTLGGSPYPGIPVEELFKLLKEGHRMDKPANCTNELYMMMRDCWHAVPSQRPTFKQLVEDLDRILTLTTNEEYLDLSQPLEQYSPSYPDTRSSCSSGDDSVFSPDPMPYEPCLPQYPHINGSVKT

Structure (SMILES)	IC50 [nM]
C=CC(=O)N1C[C@@H](n2nc(C#Cc3ccc4nccnc4c3)c(C(N)=O)c2NC)C[C@@H]1COC [Example 64, 1-[(3S,5R)-5-(Methoxymethyl)-1-(prop-2-enoyl)pyrrolidin-3-yl]-5-(methylamino)-3-[2-(quinoxalin-6-yl)ethynyl] pyrazole-4-carboxamide]	≤ 100
C=CC(=O)N1C[C@@H](n2nc(C#Cc3ccc4cc(C)cnc4c3)c(C(N)=O)c2NC)C[C@@H]1COC [Example 65, 1-((3S,5R)-1-Acryloyl-5-(methoxymethyl)pyrrolidin-3-yl)-5-(methylamino)-3-((3-methylquinolin-7-yl)ethynyl)-1H-pyrazole-4-carboxamide]	≤ 100
C=CC(=O)N1C[C@@H](n2nc(C#Cc3ccc4ccnn4c3)c(C(N)=O)c2NC)C[C@@H]1COC [Example 67, 1-[(3S,5R)-5-(Methoxymethyl)-1-(prop-2-enoyl)pyrrolidin-3-yl]-5-(methylamino)-3-(2-[pyrazolo[1,5-a]pyridin-6-yl]ethynyl)pyrazole-4-carboxamide]	≤ 100
C=CC(=O)N1C[C@@H](n2nc(C#Cc3ccc4c(ncn4CC)c3F)c(C(N)=O)c2NC)C[C@@H]1COC [Example 68, 1-((3S,5R)-1-Acryloyl-5-(methoxymethyl)pyrrolidin-3-yl)-3-((1-ethyl-4-fluoro-1H-benzo[d]imidazol-5-yl)ethynyl)-5-(methylamino)-1H-pyrazole-4-carboxamide]	≤ 100
C=CC(=O)N1C[C@@H](n2nc(C#Cc3ccc4nc(C)cnc4c3)c(C(N)=O)c2NC)C[C@@H]1COC [Example 69, 1-((3S,5R)-1-Acryloyl-5-(methoxymethyl)pyrrolidin-3-yl)-5-(methylamino)-3-((2-methylquinoxalin-6-yl)ethynyl)-1H-pyrazole-4-carboxamide]	≤ 100
C=CC(=O)N1C[C@@H](n2nc(C#Cc3ccc4c(c3)ncn4C(F)F)c(C(N)=O)c2NC)C[C@@H]1COC [Example 70, 3-[2-[1-(Difluoromethyl)-1,3-benzodiazol-5-yl]ethynyl]-1-[(3S,5R)-5-(methoxymethyl)-1-(prop-2-enoyl)pyrrolidin-3-yl]-5-(methylamino)pyrazole-4-carboxamide]	≤ 100
C=CC(=O)N1C[C@@H](n2nc(C#Cc3ccc4c(ncn4C)c3F)c(C(N)=O)c2NC)C[C@@H]1COC [Example 71, 1-((3S,5R)-1-Acryloyl-5-(methoxymethyl)pyrrolidin-3-yl)-3-((4-fluoro-1-methyl-1H-benzo[d]imidazol-5-yl)ethynyl)-5-(methylamino)-1H-pyrazole-4-carboxamide]	≤ 100
C=CC(=O)N1C[C@@H](n2nc(C#Cc3ccc4ncc(C)nc4c3)c(C(N)=O)c2NC)C[C@@H]1COC [Example 72, 1-((3S,5R)-1-Acryloyl-5-(methoxymethyl)pyrrolidin-3-yl)-5-(methylamino)-3-((3-methylquinoxalin-6-yl)ethynyl)-1H-pyrazole-4-carboxamide]	≤ 100
C=CC(=O)N1C[C@@H](n2nc(C#Cc3ccc4ncn(C(F)F)c4c3)c(C(N)=O)c2NC)C[C@@H]1COC [Example 73, 3-[2-[3-(Difluoromethyl)-1,3-benzodiazol-5-yl]ethynyl]-1-[(3S,5R)-5-(methoxymethyl)-1-(prop-2-enoyl)pyrrolidin-3-yl]-5-(methylamino)pyrazole-4-carboxamide]	≤ 100
C=CC(=O)N1C[C@@H](n2nc(C#Cc3ccc4c(C)ccnc4c3)c(C(N)=O)c2NC)C[C@@H]1COC [Example 74, 1-[(3S,5R)-5-(Methoxymethyl)-1-(prop-2-enoyl)pyrrolidin-3-yl]-5-(methylamino)-3-[2-(4-methylquinolin-7-yl)ethynyl]pyrazole-4-carboxamide]	≤ 100
C=CC(=O)N1C[C@@H](n2nc(C#Cc3ccn4c(C)cnc4c3)c(C(N)=O)c2NC)C[C@@H]1COC [Example 75, 1-[(3S,5R)-5-(Methoxymethyl)-1-(prop-2-enoyl)pyrrolidin-3-yl]-5-(methylamino)-3-(2-[3-methylimidazo[1,2-a]pyridin-7-yl]ethynyl)pyrazole-4-carboxamide]	≤ 100
C=CC(=O)N1C[C@@H](n2nc(C#Cc3cc4c(cc3F)ncn4C(F)F)c(C(N)=O)c2NC)C[C@@H]1COC [Example 76, 3-[2-[3-(Difluoromethyl)-6-fluoro-1,3-benzodiazol-5-yl]ethynyl]-1-[(3S,5R)-5-(methoxymethyl)-1-(prop-2-enoyl)pyrrolidin-3-yl]-5-(methylamino)pyrazole-4-carboxamide]	≤ 100
C=CC(=O)N1C[C@@H](n2nc(C#Cc3cc4ncn(C(F)F)c4cc3F)c(C(N)=O)c2NC)C[C@@H]1COC [Example 77, 3-[2-[1-(Difluoromethyl)-6-fluoro-1,3-benzodiazol-5-yl]ethynyl]-1-[(3S,5R)-5-(methoxymethyl)-1-(prop-2-enoyl)pyrrolidin-3-yl]-5-(methylamino)pyrazole-4-carboxamide]	≤ 100
C=CC(=O)N1C[C@@H](n2nc(C#Cc3cc4ncn(C)c4cc3F)c(C(N)=O)c2NC)C[C@@H]1COC(F)(F)F [Example 79, 3-[2-(6-Fluoro-1-methyl-1,3-benzodiazol-5-yl)ethynyl]-5-(methylamino)-1-[(3S,5R)-1-(prop-2-enoyl)-5-[(trifluoromethoxy)methyl]pyrrolidin-3-y]pyrazole-4-carboxamide]	≤ 100
C=CC(=O)N1C[C@@H](n2nc(C#Cc3cc4ncn(CC)c4cc3F)c(C(N)=O)c2NC)C[C@@H]1COC(F)(F)F [Example 80, 3-[2-(1-Ethyl-6-fluoro-1,3-benzodiazol-5-yl)ethynyl]-5-(methylamino)-1-[(3S,5R)-1-(prop-2-enoyl)-5-[(trifluoromethoxy)methyl]pyrrolidin-3-yl]pyrazole-4-carboxamide]	≤ 100
C=CC(=O)N1C[C@@H](n2nc(C#Cc3cc4ncn(C(F)F)c4cc3F)c(C(N)=O)c2NC)C[C@@H]1COC(F)(F)F [Example 81, 3-[2-[1-(Difluoromethyl)-6-fluoro-1,3-benzodiazol-5-yl]ethynyl]-5-(methylamino)-1-[(3S,5R)-1-(prop-2-enoyl)-5-[(trifluoromethoxy)methyl]pyrrolidin-3-yl]pyrazole-4-carboxamide]	≤ 100
C=CC(=O)N1C[C@@H](n2nc(C#Cc3cc4nc(C)n(C)c4cc3Cl)c(C(N)=O)c2NC)C[C@@H]1COC [Example 82, 3-[2-(6-Chloro-1,2-dimethyl-1,3-benzodiazol-5-yl)ethynyl]-1-[(3S,5R)-5-(methoxymethyl)-1-(prop-2-enoyl)pyrrolidin-3-yl]-5-(methylamino)pyrazole-4-carboxamide]	≤ 100

The remaining lines, values ahead:

IC50 [nM]	Structure (SMILES)
≤ 100	C=CC(=O)N1C[C@@H](n2nc(C#Cc3ccc4ccc(C)nc4c3)c(C(N)=O)c2NC)C[C@@H]1COC [Example 83, 1-[(3S,5R)-5-(Methoxymethyl)-1-(prop-2-enoyl)pyrrolidin-3-yl]-5-(methylamino)-3-[2-(2-methylquinolin-7-yl)ethynyl]pyrazole-4-carboxamide]
≤ 100	C=CC(=O)N1C[C@@H](n2nc(C#Cc3c(F)cc4c(ncn4C)c3F)c(C(N)=O)c2NC)C[C@@H]1COC(F)(F)F [Example 84]
≤ 100	C=CC(=O)N1C[C@@H](n2nc(C#Cc3c(F)cc4c(ncn4CC)c3F)c(C(N)=O)c2NC)C[C@@H]1COC(F)(F)F [Example 85, 3-[2-(1-Ethyl-4,6-difluoro-1,3-benzodiazol-5-yl)ethynyl]-5-(methylamino)-1-[(3S,5R)-1-(prop-2-enoyl)-5-[(trifluoromethoxy)methyl]pyrrolidin-3-yl]pyrazole-4-carboxamide]
≤ 100	C=CC(=O)N1C[C@@H](n2nc(C#Cc3cc4nc[nH]c4cc3F)c(C(N)=O)c2NC)C[C@@H]1COC(F)(F)F [Example 86, 3-[2-(6-Fluoro-1H-1,3-benzodiazol-5-yl)ethynyl]-5-(methylamino)-1-[(3S,5R)-1-(prop-2-enoyl)-5-[(trifluoromethoxy)methyl]pyrrolidin-3-yl]pyrazole-4-carboxamide]
≤ 100	C=CC(=O)N1C[C@@H](n2nc(C#Cc3cc4nc(C)[nH]c4cc3Cl)c(C(N)=O)c2NC)C[C@@H]1COC(F)(F)F [Example 87, 3-[2-(6-Chloro-2-methyl-1H-1,3-benzodiazol-5-yl)ethynyl]-5-(methylamino)-1-[(3S,5R)-1-(prop-2-enoyl)-5-[(trifluoromethoxy)methyl]pyrrolidin-3-yl]pyrazole-4-carboxamide]
≤ 100	C=CC(=O)N1C[C@@H](n2nc(C#Cc3cc4ncn(C)c4cc3Cl)c(C(N)=O)c2NC)C[C@@H]1COC [Example 88, 3-[2-(6-Chloro-1-methyl-1,3-benzodiazol-5-yl)ethynyl]-1-[(3S,5R)-5-(methoxymethyl)-1-(prop-2-enoyl)pyrrolidin-3-yl]-5-(methylamino)pyrazole-4-carboxamide]
≤ 100	C=CC(=O)N1C[C@@H](n2nc(C#Cc3cc4ncn(CC)c4cc3Cl)c(C(N)=O)c2NC)C[C@@H]1COC [Example 89, 3-[2-(6-Chloro-1-ethyl-1,3-benzodiazol-5-yl)ethynyl]-1-[(3S,5R)-5-(methoxymethyl)-1-(prop-2-enoyl)pyrrolidin-3-yl]-5-(methylamino)pyrazole-4-carboxamide]
≤ 100	C=CC(=O)N1C[C@@H](n2nc(C#Cc3cc4nc[nH]c4cc3F)c(C(N)=O)c2NC)C[C@@H]1COC [Example 90, 3-[2-(6-Fluoro-1H-1,3-benzodiazol-5-yl)ethynyl]-1-[(3S,5R)-5-(methoxymethyl)-1-(prop-2-enoyl)pyrrolidin-3-yl]-5-(methylamino)pyrazole-4-carboxamide]
≤ 100	C=CC(=O)N1C[C@@H](n2nc(C#Cc3cc4nc(C)[nH]c4cc3F)c(C(N)=O)c2NC)C[C@@H]1COC [Example 91, 3-[2-(6-Fluoro-2-methyl-1H-1,3-benzodiazol-5-yl)ethynyl]-1-[(3S,5R)-5-(methoxymethyl)-1-(prop-2-enoyl)pyrrolidin-3-yl]-5-(methylamino)pyrazole-4-carboxamide]
≤ 100	C=CC(=O)N1C[C@@H](n2nc(C#Cc3cc4nc[nH]c4cc3Cl)c(C(N)=O)c2NC)C[C@@H]1COC [Example 92, 3-[2-(6-Chloro-1H-1,3-benzodiazol-5-yl)ethynyl]-1-[(3S,5R)-5-(methoxymethyl)-1-(prop-2-enoyl)pyrrolidin-3-yl]-5-(methylamino)pyrazole-4-carboxamide]
